The record followed here is patent US8664213B2, “Spiro bicyclic diamine derivatives as HIV attachment inhibitors” (priority 2011, dated 2014).

Molecules are shown by their SMILES. Where two headings read alike, the source gives them in different places.

The test relates to HIV-1 LAI. Briefly: Single-round infectious luciferase reporter virus (HIV-1 LAI envelope) infection of MT2 cells. Format: cell-based. Conditions: Human immunodeficiency virus 1, MT2, 72 h. The source says:
• Virus Production— • Human embryonic Kidney cell line, 293T (HEK 293T), was propagated in Dulbecco's Modified Eagle Medium (Invitrogen, Carlsbad, Calif.) containing 10% fetal Bovine serum (FBS, Sigma, St. Louis, Mo.). The human T-cell leukemia cell MT2 (AIDS Research and Reference Reagent Program, Cat. 237) was propagated in RPMI 1640 (Invitrogen, Carlsbad, Calif.) containing 10% fetal bovine serum (FBS, Hyclone, Logan, Utah) • Virus Infection— • Single-round infectious reporter virus was produced by co-transfecting HEK 293T cells with plasmide expressing the HIV-1 LAI envelope along with a plasmid containing an HIV-1 LAI proviral cDNA with the envelope gene replaced by a firefly luciferase reporter gene (Chen et al, Ref 41). Transfections were performed using lipofectAMINE PLUS reagent as described by the manufacturer (Invitrogen, Carlsbad, Calif.).
• 1. MT2 cells were plated in black, 384 well plates at a cell density of 5×10^3 cells per well in 25 μl RPMI 1640 containing 10% FBS. • 2. Compound (diluted in dimethylsulfoxide and growth medium) was added to cells at 12.5 μl/well, so that the final assay concentration would be ≦50 nM. • 3. 12.5 μl of single-round infectious reporter virus in Dulbecco's Modified Eagle Medium was added to the plated cells and compound at an approximate multiplicity of infection (MOI) of 0.01, resulting in a final volume of 50 μl per well. • 4. Virus-infected cells were incubated at 37 degrees Celsius, in a CO2 incubator, and harvested 72 h after infection. • 5. Viral infection was monitored by measuring luciferase expression in the infected cells using a luciferase reporter gene assay kit (Steady-Glo, Promega, Madison, Wis.) as described by the manufacturer. Luciferase activity was then quantified by measuring luminescence using an EnVision Multilabel Plate Readers (PerkinElmer, Waltham, Mass.). • 6. The percent inhibition for each compound was calculated by quantifying the level of luciferase expression in cells infected in the presence of each compound as a percentage of that observed for cells infected in the absence of compound and subtracting such a determined value from 100. • 7. An EC50 provides a method for comparing the antiviral potency of the compounds of this disclosure. The effective concentration for fifty percent inhibition (EC50) was calculated with the Microsoft Excel Xlfit curve fitting software. For each compound, curves were generated from percent inhibition calculated at 10 different concentrations by using a four parameter logistic model (model 205). Table 1 is the key for the data in Table 2.

Setting [1] is: read-out: EC50 Group from Table 1.

With `O=C(C(=O)N1CCC2(CCN(c3nnnn3-c3ccccc3)C2)C1)c1c[nH]c2c(-n3ccnn3)ncc(F)c12` (centres unmarked) [Compound 1001, 1-(4-fluoro-7-(1H-1,2,3-triazol-1-yl)-1H-pyrrolo[2,3-c]pyridin-3-yl)-2-(7-(1-phenyl-1H-tetrazol-5-yl)-2,7-diazaspiro[4.4]nonan-2-yl)ethane-1,2-dione], the response was half-maximal at 0.00565 µM (EC50). Further, the EC50 under setting [1] is below 0.5 µM.

Regarding `COc1cnc(-n2cnc(C)n2)c2[nH]cc(C(=O)C(=O)N3CCC4(CCN(c5nnnn5-c5ccccc5)C4)C3)c12` (centres unmarked) [Compound 1002, 1-(4-methoxy-7-(3-methyl-1H-1,2,4-triazol-1-yl)-1H-pyrrolo[2,3-c]pyridin-3-yl)-2-(7-(1-phenyl-1H-tetrazol-5-yl)-2,7-diazaspiro[4.4]nonan-2-yl)ethane-1,2-dione], under setting [1], the EC50 was below 0.5 µM.

Take `COc1cnc(-n2cnc(C)n2)c2[nH]cc(C(=O)C(=O)N3CCC4(CCN(Cc5ccccc5)C4)C3)c12` (centres unmarked) [Compound 2002]: the EC50 under setting [1] was above 0.5 µM.

Regarding `O=C(C(=O)N1CCC2(CCN(C(=O)c3ccccc3)C2)C1)c1c[nH]c2c(-n3ccnn3)ncc(F)c12` (centres unmarked) [Compound 2003], under setting [1], the 50% effective concentration (EC50) is above 0.5 µM.

As for `COc1cnc(-n2cnc(C)n2)c2[nH]cc(C(=O)C(=O)N3CCC4(CCN(C(=O)c5ccccc5)C4)C3)c12` (centres unmarked) [Compound 2004], the concentration giving a half-maximal response (EC50) under setting [1] was above 0.5 µM.

In turn, `COc1cnc(-n2cnc(C)n2)c2[nH]cc(C(=O)C(=O)N3CC4(C3)CN(c3nnnn3-c3ccccc3)C4)c12` [Compound 4001, 1-(4-methoxy-7-(3-methyl-1H-1,2,4-triazol-1-yl)-1H-pyrrolo[2,3-c]pyridin-3-yl)-2-(6-(1-phenyl-1H-tetrazol-5-yl)-2,6-diazaspiro[3.3]heptan-2-yl)ethane-1,2-dione] showed a concentration giving a half-maximal response (EC50) of 0.219 µM. In addition, the EC50 under setting [1] was below 0.5 µM.

Broadly, the EC50 is the concentration needed to bring the measured effect to its halfway point.
